Test results reported in patent US12612407B2, “Imidazo[2,1-f][1,2,4]triazin-4-amine derivatives as TLR7 agonist” (BEIGENE, LTD., priority 2020, dated 2026).

Experiments:
[1] = biological target: T1, human TLR 8 protein (Homo sapiens, UniProt Q9NR97); test: TLR8 Stimulation determined using HEK-Blue Detection; assay type: cell-based; conditions: HEK-Blue hTLR8 cells, 16 hr, percentages of maximum activation with Resiquimod or Motolimod, Table 3
T1 construct: expressed in transfected cells; host or cells: HEK293 (HEK-Blue hTLR8)
T1 sequence (Q9NR97 27-1041): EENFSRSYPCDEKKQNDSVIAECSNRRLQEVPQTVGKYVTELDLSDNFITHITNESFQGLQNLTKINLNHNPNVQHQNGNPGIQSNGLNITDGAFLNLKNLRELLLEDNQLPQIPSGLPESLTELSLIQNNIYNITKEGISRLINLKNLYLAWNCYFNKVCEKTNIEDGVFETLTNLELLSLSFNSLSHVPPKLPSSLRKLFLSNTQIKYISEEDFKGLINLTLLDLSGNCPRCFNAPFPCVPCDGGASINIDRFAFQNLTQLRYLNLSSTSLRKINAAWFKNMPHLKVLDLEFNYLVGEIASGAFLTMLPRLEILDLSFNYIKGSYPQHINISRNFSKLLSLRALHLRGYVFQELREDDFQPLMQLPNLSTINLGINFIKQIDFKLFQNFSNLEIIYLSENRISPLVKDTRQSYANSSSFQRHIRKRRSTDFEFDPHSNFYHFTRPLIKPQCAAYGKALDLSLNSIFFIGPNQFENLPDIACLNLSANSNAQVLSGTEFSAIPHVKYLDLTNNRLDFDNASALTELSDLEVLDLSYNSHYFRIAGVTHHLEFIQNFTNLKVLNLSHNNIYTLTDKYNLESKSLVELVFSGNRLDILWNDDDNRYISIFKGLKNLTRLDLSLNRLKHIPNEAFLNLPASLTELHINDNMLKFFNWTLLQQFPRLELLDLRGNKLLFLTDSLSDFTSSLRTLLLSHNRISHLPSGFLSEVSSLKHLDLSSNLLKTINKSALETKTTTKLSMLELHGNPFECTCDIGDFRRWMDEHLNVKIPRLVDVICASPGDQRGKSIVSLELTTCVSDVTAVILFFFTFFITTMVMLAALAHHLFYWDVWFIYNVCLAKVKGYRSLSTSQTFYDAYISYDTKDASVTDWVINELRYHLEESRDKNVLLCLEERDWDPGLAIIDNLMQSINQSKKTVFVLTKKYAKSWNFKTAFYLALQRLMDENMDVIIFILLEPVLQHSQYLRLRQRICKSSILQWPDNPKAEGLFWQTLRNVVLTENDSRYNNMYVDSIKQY
Text: TLR8 Stimulation determined using HEK-Blue Detection
(§1) This assay was designed for studying the stimulation of human TLR 8 protein in HEK-Blue hTLR8 tool cell line by monitoring the activation of NF-κB. HEK-Blue hTLR8 cells were obtained by co-transfection of the hTLR8 gene and an optimized secreted embryonic alkaline phosphatase (SEAP) reporter gene into HEK293 cells. The SEAP reporter gene was placed under the control of the IFN-β minimal promoter fused to five NF-κB and AP-1-binding sites. Stimulation with a TLR 8 ligand activates NF-κB and AP-1 which induce the expression of SEAP. Levels of SEAP can be easily determined with HEK-Blue Detection, a cell culture medium that allows for real-time detection of SEAP. HEK-Blue Detection contains all the nutrients necessary for cell growth and a specific SEAP color substrate. The hydrolysis of the substrate by SEAP produces a purple/blue color that can be measured with a spectrophotometer.
(§2) When growing to 50-80% confluency, HEK-Blue hTLR7/8 cells were plated into 96-well plate (costar 3599) at a density of 40000 cells/well. Then compounds were added with serial dilutions over 10 points with a 1 nM-10 uM final concentration range in 0.1% DMSO/HEK-Blue Detection. The plates were then incubated for 16 hr at 37° C. in 5% CO2. The optical density at 620-655 nm was read on BMG PHERAstar FSX instrument. The EC50 for each compound was determined by calculating the percentages of the maximum activation identified with Resiquimod or Motolimod.

[2] = biological target: T2, human TLR7 (Homo sapiens, UniProt Q9NYK1); test: TLR7 Stimulation Determined Using HEK-Blue Detection; assay type: cell-based; conditions: HEK-Blue hTLR7 cells, 16 hr, percentages of maximum activation with Resiquimod, Table 1, B233-B247
T2 construct: host or cells: HEK293 (HEK-Blue hTLR7)
T2 sequence (Q9NYK1 27-1049): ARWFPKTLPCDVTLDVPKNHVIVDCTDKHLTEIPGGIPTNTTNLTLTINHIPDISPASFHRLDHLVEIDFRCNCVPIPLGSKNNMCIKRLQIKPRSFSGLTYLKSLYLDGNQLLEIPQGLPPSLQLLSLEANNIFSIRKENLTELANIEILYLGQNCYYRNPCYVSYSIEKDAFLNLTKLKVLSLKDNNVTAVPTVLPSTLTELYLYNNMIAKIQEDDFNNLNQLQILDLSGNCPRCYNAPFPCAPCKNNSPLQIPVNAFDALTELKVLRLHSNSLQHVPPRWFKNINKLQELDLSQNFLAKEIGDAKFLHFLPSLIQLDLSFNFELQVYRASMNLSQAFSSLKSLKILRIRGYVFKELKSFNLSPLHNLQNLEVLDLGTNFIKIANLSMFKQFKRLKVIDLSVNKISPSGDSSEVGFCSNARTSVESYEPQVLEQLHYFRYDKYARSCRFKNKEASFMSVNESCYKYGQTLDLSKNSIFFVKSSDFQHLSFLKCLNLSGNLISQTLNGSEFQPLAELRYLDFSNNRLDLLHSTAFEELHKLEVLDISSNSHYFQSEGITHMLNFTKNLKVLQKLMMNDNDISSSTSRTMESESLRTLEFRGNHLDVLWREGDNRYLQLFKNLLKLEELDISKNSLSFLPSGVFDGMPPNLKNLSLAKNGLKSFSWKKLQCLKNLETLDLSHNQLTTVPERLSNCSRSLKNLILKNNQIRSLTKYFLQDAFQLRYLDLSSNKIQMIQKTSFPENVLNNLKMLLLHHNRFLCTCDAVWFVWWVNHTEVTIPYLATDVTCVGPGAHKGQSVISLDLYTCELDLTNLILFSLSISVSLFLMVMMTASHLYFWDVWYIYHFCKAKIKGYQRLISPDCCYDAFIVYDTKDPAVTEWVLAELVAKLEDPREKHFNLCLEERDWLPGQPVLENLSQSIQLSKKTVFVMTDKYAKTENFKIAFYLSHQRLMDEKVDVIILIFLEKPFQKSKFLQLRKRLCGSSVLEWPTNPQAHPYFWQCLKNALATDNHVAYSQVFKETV
Text: TLR7 Stimulation Determined Using HEK-Blue Detection
as §1, with “TLR7” for “TLR 8”, “hTLR7” for “hTLR8”
as §2, with “HEK-Blue hTLR7” for “HEK-Blue hTLR7/8”, “a 0.04” for “a 1”, “nM-10 μM” for “nM-10 uM”, “5% CO2 and vortex for 30 s before measurement.” for “5% CO2.”, “with Resiquimod.” for “with Resiquimod or Motolimod.”

SMILES | EC50 [1] [nM] | EC50 [2] [nM]
CCCC(C)Oc1nc(N)c2ncc(Cc3cnc(N4CCC(CNCC(C)C)CC4)c(C)c3)n2n1 (centres unmarked) [Compound B234, 7-((6-(4-((isobutylamino)methyl)piperidin-1-yl)-5-methylpyridin-3-yl)methyl)-2-(pentan-2-yloxy)imidazo[2,1-f][1,2,4]triazin-4-amine] | 451 | 5.3
CCCC(O)COc1nc(N)c2ncc(Cc3cnc(N4CCC(CNC)CC4)c(C)c3)n2n1 (centres unmarked) [Compound B236, 1-((4-amino-7-((5-methyl-6-(4-((methylamino)methyl)piperidin-1-yl)pyridin-3-yl)methyl)imidazo[2,1-f][1,2,4]triazin-2-yl)oxy)pentan-2-ol] | > 10000 | 648
CCCC(C)Oc1nc(N)c2ncc(Cc3ccc(C4CCNCC4)nc3F)n2n1 (centres unmarked) [Compound B238, 7-((2-fluoro-6-(piperidin-4-yl)pyridin-3-yl)methyl)-2-(pentan-2-yloxy)imidazo[2,1-f][1,2,4]triazin-4-amine] | 169 | 6.7
CCC[C@H](C)Oc1nc(N)c2ncc(Cc3ccc(C4CCNCC4)nc3F)n2n1 [Compound B239, (S)-7-((2-fluoro-6-(piperidin-4-yl)pyridin-3-yl)methyl)-2-(pentan-2-yloxy)imidazo[2,1-f][1,2,4]triazin-4-amine] | 122 | 3.3
CCC[C@H](C)Nc1nc(N)c2ncc(Cc3cnc(C4CCNCC4)c(C)c3)n2n1 [Compound B240, (S)-7-((5-methyl-6-(piperidin-4-yl)pyridin-3-yl)methyl)-N2-(pentan-2-yl)imidazo[2,1-f][1,2,4]triazine-2,4-diamine] | 1510 | 1
CCC[C@H](C)Oc1nc(N)c2ncc(Cc3cnc(N4CCNCC4)c(OC)c3)n2n1 [Compound B241, (S)-7-((5-methoxy-6-(piperazin-1-yl)pyridin-3-yl)methyl)-2-(pentan-2-yloxy)imidazo[2,1-f][1,2,4]triazin-4-amine] | 445 | 5.5
CCC[C@H](C)Nc1nc(N)c2ncc(Cc3cnc(N4CCN(C(=O)CN(C)CCNC)CC4)c(C)c3)n2n1 [Compound B244, (S)-1-(4-(5-((4-amino-2-(pentan-2-ylamino)imidazo[2,1-f][1,2,4]triazin-7-yl)methyl)-3-methylpyridin-2-yl)piperazin-1-yl)-2-(methyl(2-(methylamino)ethyl)amino)ethan-1-one] | > 10000 | 12
CCC[C@H](C)Nc1nc(N)c2ncc(Cc3cnc(N4CCN(C(=O)CN)CC4)c(C)c3)n2n1 [Compound B246, (S)-2-amino-1-(4-(5-((4-amino-2-(pentan-2-ylamino)imidazo[2,1-f][1,2,4]triazin-7-yl)methyl)-3-methylpyridin-2-yl)piperazin-1-yl)ethan-1-one] | > 10000 | 10.9
CCC[C@H](C)Nc1nc(N)c2ncc(Cc3cnc(N4CCN(CCO)CC4)c(C)c3)n2n1 [Compound B247, (S)-2-(4-(5-((4-amino-2-(pentan-2-ylamino)imidazo[2,1-f][1,2,4]triazin-7-yl)methyl)-3-methylpyridin-2-yl)piperazin-1-yl)ethan-1-ol] | > 10000 | 0.6

Continued by falling EC50 [1], values first:

EC50 [1] [nM] | EC50 [2] [nM] | SMILES
3630 | 63 | CCCC(CO)Oc1nc(N)c2ncc(Cc3cnc(N4CCC(CNC)CC4)c(C)c3)n2n1 (centres unmarked) [Compound B235, 2-((4-amino-7-((5-methyl-6-(4-((methylamino)methyl)piperidin-1-yl)pyridin-3-yl)methyl)imidazo[2,1-f][1,2,4]triazin-2-yl)oxy)pentan-1-ol]
485 | 2.5 | CCC[C@H](C)Nc1nc(N)c2ncc(Cc3cnc(N4CCC(CN(C)CCNC)CC4)c(C)c3)n2n1 [Compound B245, (S)-7-((5-methyl-6-(4-((methyl(2-(methylamino)ethyl)amino)methyl)piperidin-1-yl)pyridin-3-yl)methyl)-N2-(pentan-2-yl)imidazo[2,1-f][1,2,4]triazine-2,4-diamine]
365 | 35 | CCC[C@H](C)Oc1nc(N)c2ncc(Cc3ccn(C4CCNCC4)c(=O)c3)n2n1 [Compound B243, (S)-4-((4-amino-2-(pentan-2-yloxy)imidazo[2,1-f][1,2,4]triazin-7-yl)methyl)-1-(piperidin-4-yl)pyridin-2(1H)-one]
74 | 9.8 | CCCC(CCO)Oc1nc(N)c2ncc(Cc3ccc(C4CCNCC4)nc3F)n2n1 (centres unmarked) [Compound B242, 3-((4-amino-7-((2-fluoro-6-(piperidin-4-yl)pyridin-3 yl)methyl)imidazo[2,1-f][1,2,4]triazin-2-yl)oxy)hexan-1-ol]
